# Compound: COCC[n+]1c2c(n(Cc3cnccn3)c1C)C(=O)c1ccccc1C2=O [YM155] + CC(C)C[C@H](NC(=O)[C@H](Cc1ccccc1)NC(=O)c1cnccn1)B(O)O [Bortezomib] (partner 0.002 µM)
# Assay: relative viability (nuclei count vs DMSO), 5 days (fraction); higher = more cells survive
# Details: first compound 0.06325 µM
# In short: (§1)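 Nuclei were stained with Hoechst during a one-step fixation (final 0.05% Triton X-100, 1% formaldehyde, 1 ug/ml Hoechst) carried out 5 days after dosing, then counted on 4× images. The cells, lung cancer lines in 1536-well plates, had been dosed by pin tool the day after seeding with one drug alone or a fixed anchor-drug dose plus five library-drug doses (not always all listed) in √10 steps. Relative viability is the nuclei count in treated wells divided by that in vehicle wells, and each value is the median of duplicate plates.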
row,Cell Line,relative viability
1,LCLC-103H,1.1
2,ABC-1,0.209
3,NCI-H1734,0.99
4,IA-LM,0.737
5,NCI-H727,0.977
6,HCC-44,0.936

# Compound: COCC[n+]1c2c(n(Cc3cnccn3)c1C)C(=O)c1ccccc1C2=O [YM155] + Cc1nc(Nc2ncc(C(=O)Nc3c(C)cccc3Cl)s2)cc(N2CCN(CCO)CC2)n1 [Dasatinib] (partner 0.075 µM)
# Assay: as above
# Details: first compound 0.002 µM
# In short: as §1
row,Cell Line,relative viability
1,EKVX,0.647
2,EPLC-272H,0.358
3,NCI-H520,0.197
4,NCI-H1563,0.382
5,NCI-H650,0.446
6,RERF-LC-KJ,0.755
7,HCC-827,0.337
8,NCI-H2087,0.765
9,SK-MES-1,0.447
10,NCI-H1651,0.437
11,UMC-11,0.374
12,NCI-H1355,0.731
13,H3255,0.379
14,NCI-H1792,0.83
15,NCI-H647,0.151
16,NCI-H1623,0.547
17,LCLC-97TM1,0.761
18,LXF-289,0.233
19,LU99A,0.562
20,NCI-H2023,0.486

row,Cell Line,relative viability
1,NCI-H2228,0.432
2,NCI-H1437,0.351
3,NCI-H1395,0.359
4,NCI-H2009,0.265
5,HCC-366,0.578
6,NCI-H1915,0.311
7,NCI-H2347,0.323
8,LCLC-103H,0.446
9,ABC-1,0.48
10,NCI-H1734,0.471
11,NCI-H1944,0.201
12,NCI-H2170,0.485
13,SW 900,0.443
14,NCI-H358,0.139
15,LK-2,0.275
16,NCI-H2342,0.308
17,NCI-H1793,0.366
18,NCI-H727,0.359
19,NCI-H522,0.877

# Same assay, conditions: first compound 0.006325 µM
row,Cell Line,relative viability
1,EKVX,0.539
2,EPLC-272H,0.371
3,NCI-H520,0.174
4,NCI-H1563,0.541
5,NCI-H650,0.524
6,RERF-LC-KJ,0.836
7,HCC-827,0.262
8,NCI-H2087,0.78
9,SK-MES-1,0.34
10,NCI-H1651,0.372
11,UMC-11,0.49
12,NCI-H1355,0.748
13,H3255,0.339
14,NCI-H1792,0.606
15,NCI-H647,0.241
16,NCI-H1623,0.529
17,LCLC-97TM1,0.954
18,LXF-289,0.231
19,LU99A,0.442
20,NCI-H2023,0.588

row,Cell Line,relative viability
1,NCI-H2228,0.528
2,NCI-H1437,0.324
3,NCI-H1395,0.423
4,NCI-H2009,0.264
5,HCC-366,0.653
6,NCI-H1915,0.284
7,NCI-H2347,0.321
8,LCLC-103H,0.456
9,ABC-1,0.374
10,NCI-H1734,0.525
11,NCI-H1944,0.202
12,NCI-H2170,0.628
13,SW 900,0.523
14,NCI-H358,0.145
15,LK-2,0.271
16,NCI-H2342,0.336
17,NCI-H1793,0.443
18,NCI-H727,0.5
19,NCI-H522,0.818

# Same assay, conditions: first compound 0.02 µM
row,Cell Line,relative viability
1,EKVX,0.491
2,EPLC-272H,0.396
3,NCI-H520,0.217
4,NCI-H1563,0.453
5,NCI-H650,0.509
6,RERF-LC-KJ,0.851
7,HCC-827,0.308
8,NCI-H2087,0.964
9,SK-MES-1,0.332
10,NCI-H1651,0.442
11,UMC-11,0.518
12,NCI-H1355,0.781
13,H3255,0.534
14,NCI-H1792,0.782
15,NCI-H647,0.192
16,NCI-H1623,0.599
17,LCLC-97TM1,0.739
18,LXF-289,0.194
19,LU99A,0.697
20,NCI-H2023,0.52

row,Cell Line,relative viability
1,NCI-H2228,0.534
2,NCI-H1437,0.348
3,NCI-H1395,0.388
4,NCI-H2009,0.343
5,HCC-366,0.685
6,NCI-H1915,0.309
7,NCI-H2347,0.35
8,LCLC-103H,0.474
9,ABC-1,0.197
10,NCI-H1734,0.495
11,NCI-H1944,0.208
12,NCI-H2170,0.572
13,SW 900,0.845
14,NCI-H358,0.161
15,LK-2,0.266
16,NCI-H2342,0.329
17,NCI-H1793,0.338
18,NCI-H727,0.389
19,NCI-H522,0.915

# Same assay, conditions: first compound 0.06325 µM
row,Cell Line,relative viability
1,EKVX,0.62
2,EPLC-272H,0.365
3,NCI-H520,0.185
4,NCI-H1563,0.475
5,NCI-H650,0.44
6,RERF-LC-KJ,0.78
7,HCC-827,0.345
8,NCI-H2087,0.775
9,SK-MES-1,0.154
10,NCI-H1651,0.39
11,UMC-11,0.51
12,NCI-H1355,0.801
13,H3255,0.405
14,NCI-H1792,0.941
15,NCI-H647,0.149
16,NCI-H1623,0.555
17,LCLC-97TM1,0.835
18,LXF-289,0.224
19,LU99A,0.518
20,NCI-H2023,0.374

row,Cell Line,relative viability
1,NCI-H2228,0.661
2,NCI-H1437,0.253
3,NCI-H1395,0.444
4,NCI-H2009,0.266
5,HCC-366,0.581
6,NCI-H1915,0.301
7,NCI-H2347,0.334
8,LCLC-103H,0.531
9,ABC-1,0.26
10,NCI-H1734,0.518
11,NCI-H1944,0.24
12,NCI-H2170,0.625
13,SW 900,0.666
14,NCI-H358,0.156
15,LK-2,0.294
16,NCI-H2342,0.301
17,NCI-H1793,0.34
18,NCI-H727,0.352
19,NCI-H522,0.9

# Compound: COCC[n+]1c2c(n(Cc3cnccn3)c1C)C(=O)c1ccccc1C2=O [YM155] + O=C(CCCCCCC(=O)Nc1ccccc1)NO [Vorinostat] (partner 1 µM)
# Assay: as above
# Details: first compound 0.002 µM
# In short: as §1
row,Cell Line,relative viability
1,EKVX,0.767
2,EPLC-272H,0.443
3,NCI-H520,0.824
4,NCI-H650,0.364
5,RERF-LC-KJ,0.694
6,HCC-827,0.875
7,NCI-H2087,0.667
8,SK-MES-1,1
9,NCI-H1651,0.569
10,UMC-11,0.392
11,NCI-H1355,0.58
12,H3255,0.729
13,NCI-H647,0.472
14,LXF-289,0.739
15,LU99A,0.508
16,NCI-H2023,0.738
17,NCI-H2228,0.451
18,NCI-H1437,0.83

row,Cell Line,relative viability
1,NCI-H1395,0.691
2,NCI-H2009,0.685
3,HCC-366,0.321
4,NCI-H1915,0.516
5,NCI-H2347,0.506
6,LCLC-103H,0.732
7,NCI-H1734,0.826
8,NCI-H1944,0.596
9,IA-LM,0.863
10,NCI-H2170,0.725
11,NCI-H358,0.641
12,LK-2,0.304
13,NCI-H2342,0.717
14,NCI-H1793,0.719
15,NCI-H727,1.32
16,HCC-44,1.01
17,NCI-H522,0.846

# Same assay, conditions: first compound 0.006325 µM
row,Cell Line,relative viability
1,EKVX,0.793
2,EPLC-272H,0.384
3,NCI-H520,0.695
4,NCI-H650,0.491
5,RERF-LC-KJ,0.794
6,HCC-827,0.961
7,NCI-H2087,0.759
8,SK-MES-1,1.17
9,NCI-H1651,0.538
10,UMC-11,0.35
11,NCI-H1355,0.615
12,H3255,0.78
13,NCI-H647,0.484
14,LCLC-97TM1,0.817
15,LXF-289,0.789
16,LU99A,0.419
17,NCI-H2023,0.817
18,NCI-H2228,0.82
19,NCI-H1437,0.809

row,Cell Line,relative viability
1,NCI-H1395,0.727
2,NCI-H2009,0.693
3,HCC-366,0.393
4,NCI-H1915,0.519
5,NCI-H2347,0.488
6,LCLC-103H,0.824
7,ABC-1,1.03
8,NCI-H1734,0.799
9,NCI-H1944,0.511
10,IA-LM,0.932
11,NCI-H2170,0.752
12,SW 900,0.465
13,NCI-H358,0.643
14,LK-2,0.139
15,NCI-H2342,0.724
16,NCI-H1793,0.641
17,NCI-H727,1.28
18,HCC-44,1.11
19,NCI-H522,0.78

# Same assay, conditions: first compound 0.02 µM
row,Cell Line,relative viability
1,EKVX,0.671
2,EPLC-272H,0.357
3,NCI-H520,0.736
4,NCI-H650,0.5
5,RERF-LC-KJ,0.654
6,HCC-827,0.835
7,NCI-H2087,0.55
8,SK-MES-1,1.11
9,NCI-H1651,0.586
10,UMC-11,0.377
11,NCI-H1355,0.718
12,H3255,0.776
13,NCI-H647,0.755
14,LCLC-97TM1,0.753
15,LXF-289,0.73
16,LU99A,0.514
17,NCI-H2023,0.792
18,NCI-H2228,0.585
19,NCI-H1437,0.833

row,Cell Line,relative viability
1,NCI-H1395,0.864
2,NCI-H2009,0.726
3,HCC-366,0.469
4,NCI-H1915,0.525
5,NCI-H2347,0.521
6,LCLC-103H,0.864
7,ABC-1,0.373
8,NCI-H1734,0.891
9,NCI-H1944,0.599
10,IA-LM,0.942
11,NCI-H2170,0.863
12,SW 900,0.582
13,NCI-H358,0.86
14,LK-2,0.388
15,NCI-H2342,0.705
16,NCI-H1793,0.89
17,NCI-H727,1.27
18,HCC-44,1.12
19,NCI-H522,0.933

# Same assay, conditions: first compound 0.06325 µM
row,Cell Line,relative viability
1,EKVX,0.725
2,EPLC-272H,0.55
3,NCI-H520,0.729
4,NCI-H650,0.312
5,RERF-LC-KJ,0.759
6,HCC-827,0.835
7,NCI-H2087,0.44
8,SK-MES-1,0.415
9,NCI-H1651,0.605
10,UMC-11,0.343
11,NCI-H1355,0.635
12,H3255,0.671
13,NCI-H647,0.388
14,LCLC-97TM1,0.481
15,LXF-289,0.756
16,LU99A,0.441
17,NCI-H2023,0.171
18,NCI-H2228,0.51
19,NCI-H1437,0.432

row,Cell Line,relative viability
1,NCI-H1395,0.696
2,NCI-H2009,0.621
3,HCC-366,0.279
4,NCI-H1915,0.533
5,NCI-H2347,0.476
6,LCLC-103H,0.802
7,ABC-1,0.303
8,NCI-H1734,0.84
9,NCI-H1944,0.629
10,IA-LM,0.97
11,NCI-H2170,0.842
12,SW 900,0.408
13,NCI-H358,0.106
14,LK-2,0.305
15,NCI-H2342,0.704
16,NCI-H1793,0.74
17,NCI-H727,1.29
18,HCC-44,1.1
19,NCI-H522,0.932
